Measurements: patent US10766899B2, “Methods for preparing substituted imidazo[4,5-b]pyrazines” (Cytokinetics, Inc., priority 2006, dated 2020)
Where “and” joins values, the source holds several entries; their conditions need not be identical. Identical values can stand only once.

The compounds below were run on SKM MF (assay: SKM MF AC1.4: ATPase of skeletal sarcomeric proteins (actin, tropomyosin, troponin complex, myosin), PK/LDH coupled enzyme system). Conditions: screen at pCa=6.5; † mean value, ‡ median value.
Type: biochemical
Procedure: For example, test compounds can be assayed in a highly parallel fashion by using multiwell plates by placing the compounds either individually in wells or testing them in mixtures. Assay components including the target protein complex, coupling enzymes and substrates, and ATP can then be added to the wells and the absorbance or fluorescence of each well of the plate can be measured with a plate reader.
In some embodiments, the method uses a 384 well plate format and a 25 μL reaction volume. A pyruvate kinase/lactate dehydrogenase coupled enzyme system (Huang T G and Hackney D D. (1994) J Biol Chem 269(23):16493-501) can be used to measure the rate of ATP hydrolysis in each well. As will be appreciated by those in the art, the assay components are added in buffers and reagents. The incubation periods can be optimized to give adequate detection signals over the background. The assay can be done in real time giving the kinetics of ATP hydrolysis which increases the signal to noise ratio of the assay.
Actin was purified by first preparing an ether powder of cardiac muscle (Zot H G and Potter J D. (1981) Preparative Biochemistry 11:381-395) as described below. Subsequently, actin was cycled between the filamentous and soluble state through rounds of centrifugation and dialysis (Spudich J A and Watt S. (1971) J. Biol. Chem. 246:4866-4871). It was stored in the filamentous state at 4° C.
Tropomyosin was extracted from the ether powder and separated from the other proteins based on pH dependent precipitations followed by successive ammonium sulfate cuts at 53% and 65% (Smillie L B. (1981) Methods Enzymol 85 Pt B:234-41). The troponins were isolated as an intact complex of TnC, TnT, and TnI. Ether powder is extracted in a high salt buffer. Successive ammonium sulfate cuts of 30% and 45% were done; the precipitate was solubilized by dialysis into a low salt buffer and then further purified on a DEAE Toyopearl column with a 25-350 mM KCl gradient.
Just prior to screening, the actin, tropomyosin, and troponin complex are mixed together in the desired ratio (e.g., 7:1:1) to achieve maximal calcium regulation of the actin filament. The screen is conducted at a pCa=6.5. This calcium concentration is in the physiological range during muscle contraction.
To measure the generation of ADP during the reaction, a pyruvate kinase/lactate dehydrogenase/NADH coupled enzyme system (PK/LDH) is added to the actin. The myosin is kept separately. The plates are read in real time so that kinetic curves are obtained. These compounds are in DMSO and were already spotted onto the bottoms of 384 well plates at 10 to 40 μg/ml final concentration.
• 1. Obtain ˜1000 g skeletal muscle, such as rabbit skeletal muscle. • 2. Grind twice; extract with 2 L solution A for 15 min while stirring; add 4 L cold H2O, filter through gauze; dilute with cold H2O to ionic strength of 0.04, (about 10-fold); let settle for 3 h; collect precipitate at 7,000 rpm in GSA rotor for 15 min. • 3. Disperse pellet in 220 ml solution B; dialyze overnight against 6 L solution C; slowly add ˜400 ml equal volume cold distilled H2O; stir for 30 min; centrifuge at 10,000 rpm for 10 min in GSA rotor. • 4. Centrifuge supernatant at 19,000 rpm for 1 h. • 5. Dilute supernatant to ionic strength of 0.04 (˜8-fold); let myosin settle overnight; collect about 5-6 L fluffy myosin precipitate by centrifuging at 10,000 rpm for 10 min in GSA rotor. • 6. Resuspend pellet in minimal volume of solution G; dialyze overnight against 2 L solution D; centrifuge at 19,000 rpm for 2 h, in cellulose nitrate tubes; puncture tubes and separate myosin from fat and insoluble pellet. • 7. Dilute supernatant to 5-10 mg/ml and dialyze against solution E extensively, load onto DEAE-sephadex column. • 8. […]
C/C=C/c1cnc2nc(O)n(C(C)C)c2n1 [(E)-1-isopropyl-6-(prop-1-enyl)-1H-imidazo[4,5-b]pyrazin-2-ol] was tested, and the “SKM MF AC1.4” value was 7.1 µM.
With CC(C)(C)n1c(O)nc2ncc(Br)nc21 [6-bromo-1-tert-butyl-1H-imidazo[4,5-b]pyrazin-2-ol] the “SKM MF AC1.4” value was 0.8 µM.
CCC(CN1CCOCC1)n1c(O)nc2nccnc21 (stereo not shown) [1-(1-morpholinobutan-2-yl)-1H-imidazo[4,5-b]pyrazin-2-ol] was tested, and the “SKM MF AC1.4” value was over 49 µM.
CCc1cnc2nc(O)n([C@@H](C)c3ccccc3)c2n1 [(S)-1-(1-phenylethyl)-6-ethyl-1H-imidazo[4,5-b]pyrazin-2-ol] was tested, and the “SKM MF AC1.4” value was 17.4 µM.
For CSc1cnc2nc(O)n([C@H](C)c3ccccc3)c2n1 [(R)-6-(methylthio)-1-(1-phenylethyl)-1H-imidazo[4,5-b]pyrazin-2-ol], the “SKM MF AC1.4” value was 2.9 µM.
“1-(ethylpropyl)-6-(1-methylpyrazol-4-yl)imidazo[4,5-b]pyrazin-2-ol” was tested, and the “SKM MF AC1.4” value was 15 µM.
In the case of CC[C@H](CO)n1c(O)nc2ncc(Br)nc21 [(R)-6-bromo-1-(1-hydroxybutan-2-yl)-1H-imidazo[4,5-b]pyrazin-2-ol], the “SKM MF AC1.4” value was 1.1 µM.
For CC(C)=Cc1cnc2nc(O)n([C@@H](C)c3ccccc3)c2n1 [(S)-6-(2-methylprop-1-enyl)-1-(1-phenylethyl)-1H-imidazo[4,5-b]pyrazin-2-ol], the “SKM MF AC1.4” value was 2.7 µM.
With CCC(CC)n1c(O)nc2ncc(OC)nc21 [6-methoxy-1-(pentan-3-yl)-1H-imidazo[4,5-b]pyrazin-2-ol] the “SKM MF AC1.4” value was 2.2^‡ μM.
In the case of CCC(CC)n1c(O)nc2ncc(O)nc21 [1-(pentan-3-yl)-1H-imidazo[4,5-b]pyrazine-2,6-diol], the “SKM MF AC1.4” value was over 49 µM.
In the case of CCC(C(=O)O)n1c(O)nc2ncc(Br)nc21 (stereo not shown) [2-(6-bromo-2-hydroxy-1H-imidazo[4,5-b]pyrazin-1-yl)butanoic acid], the “SKM MF AC1.4” value was over 49 µM.
For CCC(CC)n1c(O)nc2nc3ccccc3nc21 [1-(pentan-3-yl)-1H-imidazo[4,5-b]quinoxalin-2-ol], the “SKM MF AC1.4” value was 19.8 µM.
In the case of CCC(CN1CCN(C(=O)OC)CC1)n1c(O)nc2ncc(Br)nc21 (stereo not shown) [methyl 4-(2-(6-bromo-2-hydroxy-1H-imidazo[4,5-b]pyrazin-1-yl)butyl)piperazine-1-carboxylate], the “SKM MF AC1.4” value was 0.9^† μM.
In the case of CCC(CN(C)C)n1c(O)nc2ncc(Br)nc21 (stereo not shown) [6-bromo-1-(1-(dimethylamino)butan-2-yl)-1H-imidazo[4,5-b]pyrazin-2-ol], the “SKM MF AC1.4” value was 43.8 µM.
With CSc1cnc2nc(O)n(C(C)C)c2n1 [1-isopropyl-6-(methylthio)-1H-imidazo[4,5-b]pyrazin-2-ol] the “SKM MF AC1.4” value was 6.7 µM.
With “1-(ethylpropyl)-6-(1-methylvinyl)imidazo[4,5-b]pyrazin-2-ol” the “SKM MF AC1.4” value was 0.6 µM.
For CCOc1cnc2nc(O)n([C@@H](C)c3ccccc3)c2n1 [(S)-6-ethoxy-1-(1-phenylethyl)-1H-imidazo[4,5-b]pyrazin-2-ol], the “SKM MF AC1.4” value was 10.6 µM.
For C/C=C/c1cnc2nc(O)n(C(CC)CC)c2n1 [(E)-1-(pentan-3-yl)-6-(prop-1-enyl)-1H-imidazo[4,5-b]pyrazin-2-ol], the “SKM MF AC1.4” value was 0.4 µM.
CC(C)C[C@H](CN1CCOCC1)n1c(O)nc2ncc(Br)nc21 [1-[(1R)-3-methyl-1-(morpholin-4-ylmethyl)butyl]-6-bromoimidazo[4,5-b]pyrazin-2-ol] was tested, and the “SKM MF AC1.4” value was 0.5 µM.
CCC(CNC)n1c(O)nc2ncc(Br)nc21 (stereo not shown) [6-bromo-1-(1-(methylamino)butan-2-yl)-1H-imidazo[4,5-b]pyrazin-2-ol] was tested, and the “SKM MF AC1.4” value was 45.7 µM.
CC(C)(CN1CCOCC1)n1c(O)nc2ncc(Br)nc21 [6-bromo-1-(2-methyl-1-morpholinopropan-2-yl)-1H-imidazo[4,5-b]pyrazin-2-ol] was tested, and the “SKM MF AC1.4” value was 16.4^‡ μM.
In the case of C/C=C\c1cnc2nc(O)n(C3CCCCC3)c2n1 [(Z)-1-cyclohexyl-6-(prop-1-enyl)-1H-imidazo[4,5-b]pyrazin-2-ol], the “SKM MF AC1.4” value was 6.0 µM.
With CCCc1cnc2nc(O)n([C@@H](C)c3ccccc3)c2n1 [(S)-1-(1-phenylethyl)-6-propyl-1H-imidazo[4,5-b]pyrazin-2-ol] the “SKM MF AC1.4” value was 29.7 µM.
With CC(C)n1c(O)nc2ncc(Br)nc21 [6-bromo-1-isopropyl-1H-imidazo[4,5-b]pyrazin-2-ol] the “SKM MF AC1.4” value was 6.0 µM.
In the case of “6-bromo-1-(propylbutyl)imidazo[4,5-b]pyrazin-2-ol”, the “SKM MF AC1.4” value was 0.7 µM.
CCC(CC)n1c(O)nc2ncc(Br)nc21 [6-bromo-1-(pentan-3-yl)-1H-imidazo[4,5-b]pyrazin-2-ol] was tested, and the “SKM MF AC1.4” value was 0.25 µM.
With C=Cc1cnc2nc(O)n([C@@H](C)c3ccccc3)c2n1 [(S)-1-(1-phenylethyl)-6-vinyl-1H-imidazo[4,5-b]pyrazin-2-ol] the “SKM MF AC1.4” value was 2.4 µM.
For C[C@H](CN1CCOCC1)n1c(O)nc2ncc(Br)nc21 [(R)-6-bromo-1-(1-morpholinopropan-2-yl)-1H-imidazo[4,5-b]pyrazin-2-ol], the “SKM MF AC1.4” value was 5.2^‡ μM.
CC[C@H](CN1CCOCC1)n1c(O)nc2ncc(Br)nc21 [(R)-6-bromo-1-(1-morpholinobutan-2-yl)-1H-imidazo[4,5-b]pyrazin-2-ol] was tested, and the “SKM MF AC1.4” value was 0.3 µM.
With CCC(CC)n1c(O)nc2ncc(N(C)C)nc21 [6-(dimethylamino)-1-(pentan-3-yl)-1H-imidazo[4,5-b]pyrazin-2-ol] the “SKM MF AC1.4” value was 2.2 µM and 2.79 µM.
With “6-ethyl-1-(ethylpropyl)imidazo[4,5-b]pyrazin-2-ol” the “SKM MF AC1.4” value was 8.58 µM.
With CSc1cnc2nc(O)n([C@@H](C)c3ccccc3)c2n1 [(S)-6-(methylthio)-1-(1-phenylethyl)-1H-imidazo[4,5-b]pyrazin-2-ol] the “SKM MF AC1.4” value was 1.1 µM.
In the case of C[C@@H](c1ccccc1)n1c(O)nc2ncc(Br)nc21 [(S)-6-bromo-1-(1-phenylethyl)-1H-imidazo[4,5-b]pyrazin-2-ol], the “SKM MF AC1.4” value was 0.45 µM.
In the case of CCC(CC)n1c(O)nc2ncc(Cl)nc21 [6-chloro-1-(ethylpropyl)imidazo[4,5-b]pyrazin-2-ol], the “SKM MF AC1.4” value was 0.7 µM.
With CC[C@@H](C)n1c(O)nc2ncc(Br)nc21 [(R)-6-bromo-1-sec-butyl-1H-imidazo[4,5-b]pyrazin-2-ol] the “SKM MF AC1.4” value was 1.5 µM.
With CCC(CC)n1c(O)nc2ncc(C)nc21 [6-methyl-1-(pentan-3-yl)-1H-imidazo[4,5-b]pyrazin-2-ol] the “SKM MF AC1.4” value was 0.53 µM.
In the case of Oc1nc2ncc(Br)nc2n1C1CCCCC1 [6-bromo-1-cyclohexyl-1H-imidazo[4,5-b]pyrazin-2-ol], the “SKM MF AC1.4” value was 10.4 µM.

Same assay, conditions: screen at pCa=6.5; † mean value, ‡ median value; listed as 1-(1,1-dimethyl-2-morpholin-4-ylethyl)-6-bromoimidazo[4,5-b]pyrazin-2-ol
For CC(C)(CN1CCOCC1)n1c(O)nc2ncc(Br)nc21 [6-bromo-1-(2-methyl-1-morpholinopropan-2-yl)-1H-imidazo[4,5-b]pyrazin-2-ol], the “SKM MF AC1.4” value was 19.11 µM.

Same assay, conditions: screen at pCa=6.5; † mean value, ‡ median value; listed as 1-((1R)-1-methyl-2-morpholin-4-ylethyl)-6-bromoimidazo[4,5-b]pyrazin-2-ol
In the case of C[C@H](CN1CCOCC1)n1c(O)nc2ncc(Br)nc21 [(R)-6-bromo-1-(1-morpholinopropan-2-yl)-1H-imidazo[4,5-b]pyrazin-2-ol], the “SKM MF AC1.4” value was 5.19 µM.

Same assay, conditions: screen at pCa=6.5; † mean value, ‡ median value; listed as 1-(ethylpropyl)-6-methoxyimidazo[4,5-b]pyrazin-2-ol
For CCC(CC)n1c(O)nc2ncc(OC)nc21 [6-methoxy-1-(pentan-3-yl)-1H-imidazo[4,5-b]pyrazin-2-ol], the “SKM MF AC1.4” value was 2.20 µM.

Same assay, conditions: screen at pCa=6.5; † mean value, ‡ median value; listed as 6-bromo-1-(2-methyl-1-morpholinopropan-2-yl)-1H-imidazo[4,5-b]pyrazin-2(3H)-one
CC(C)(CN1CCOCC1)n1c(O)nc2ncc(Br)nc21 [6-bromo-1-(2-methyl-1-morpholinopropan-2-yl)-1H-imidazo[4,5-b]pyrazin-2-ol] was tested, and the “SKM MF AC1.4” value was 16.4^‡ μM.

Same assay, conditions: screen at pCa=6.5; † mean value, ‡ median value; listed as 6-methoxy-1-(pentan-3-yl)-1H-imidazo[4,5-b]pyrazin-2(3H)-one
For CCC(CC)n1c(O)nc2ncc(OC)nc21 [6-methoxy-1-(pentan-3-yl)-1H-imidazo[4,5-b]pyrazin-2-ol], the “SKM MF AC1.4” value was 2.2^‡ μM.

Same assay, conditions: screen at pCa=6.5; † mean value, ‡ median value; listed as (R)-6-bromo-1-(1-morpholinopropan-2-yl)-1H-imidazo[4,5-b]pyrazin-2(3H)-one
C[C@H](CN1CCOCC1)n1c(O)nc2ncc(Br)nc21 [(R)-6-bromo-1-(1-morpholinopropan-2-yl)-1H-imidazo[4,5-b]pyrazin-2-ol] was tested, and the “SKM MF AC1.4” value was 5.2^‡ μM.
